What was measured:
Assay in all cases: relative viability (nuclei count vs DMSO), 5 days (fraction); higher = more cells survive
Palbociclib + Olaparib = compound: CC(=O)c1c(C)c2cnc(Nc3ccc(N4CCNCC4)cn3)nc2n(C2CCCC2)c1=O [Palbociclib] + O=C(c1cc(Cc2n[nH]c(=O)c3ccccc23)ccc1F)N1CCN(C(=O)C2CC2)CC1 [Olaparib] (partner 8 µM)
Outline: (§1)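 Relative viability equals treated-well nuclei counts divided by vehicle-well nuclei counts. Counts came from 4× images of lung cancer cell lines grown in 1536-well plates for 5 days after pin-tool dosing on the day after seeding. Dosing used one drug alone or a fixed anchor-drug dose plus five library-drug doses (not always all listed) in √10 steps, and values are medians of duplicate plates.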

Palbociclib + Navitoclax = compound: CC(=O)c1c(C)c2cnc(Nc3ccc(N4CCNCC4)cn3)nc2n(C2CCCC2)c1=O [Palbociclib] + CC1(C)CCC(c2ccc(Cl)cc2)=C(CN2CCN(c3ccc(C(=O)NS(=O)(=O)c4ccc(N[C@H](CCN5CCOCC5)CSc5ccccc5)c(S(=O)(=O)C(F)(F)F)c4)cc3)CC2)C1 [Navitoclax] (partner 0.5 µM)
Outline: as §1

Palbociclib + Vorinostat = compound: CC(=O)c1c(C)c2cnc(Nc3ccc(N4CCNCC4)cn3)nc2n(C2CCCC2)c1=O [Palbociclib] + O=C(CCCCCCC(=O)Nc1ccccc1)NO [Vorinostat] (partner 1 µM)
Outline: as §1

Palbociclib + Foretinib = compound: CC(=O)c1c(C)c2cnc(Nc3ccc(N4CCNCC4)cn3)nc2n(C2CCCC2)c1=O [Palbociclib] + COc1cc2c(Oc3ccc(NC(=O)C4(C(=O)Nc5ccc(F)cc5)CC4)cc3F)ccnc2cc1OCCCN1CCOCC1 [Foretinib] (partner 0.25 µM)
Outline: as §1

Palbociclib + Lapatinib = compound: CC(=O)c1c(C)c2cnc(Nc3ccc(N4CCNCC4)cn3)nc2n(C2CCCC2)c1=O [Palbociclib] + CS(=O)(=O)CCNCc1ccc(-c2ccc3ncnc(Nc4ccc(OCc5cccc(F)c5)c(Cl)c4)c3c2)o1 [Lapatinib] (partner 2 µM)
Outline: as §1

Palbociclib + Crizotinib = compound: CC(=O)c1c(C)c2cnc(Nc3ccc(N4CCNCC4)cn3)nc2n(C2CCCC2)c1=O [Palbociclib] + C[C@@H](Oc1cc(-c2cnn(C3CCNCC3)c2)cnc1N)c1c(Cl)ccc(F)c1Cl [Crizotinib] (partner 1 µM)
Outline: as §1

Palbociclib + Pictilisib = compound: CC(=O)c1c(C)c2cnc(Nc3ccc(N4CCNCC4)cn3)nc2n(C2CCCC2)c1=O [Palbociclib] + CS(=O)(=O)N1CCN(Cc2cc3nc(-c4cccc5[nH]ncc45)nc(N4CCOCC4)c3s2)CC1 [Pictilisib] (partner 1 µM)
Outline: as §1

Palbociclib + Bortezomib = compound: CC(=O)c1c(C)c2cnc(Nc3ccc(N4CCNCC4)cn3)nc2n(C2CCCC2)c1=O [Palbociclib] + CC(C)C[C@H](NC(=O)[C@H](Cc1ccccc1)NC(=O)c1cnccn1)B(O)O [Bortezomib] (partner 0.002 µM)
Outline: as §1

Palbociclib + Linsitinib = compound: CC(=O)c1c(C)c2cnc(Nc3ccc(N4CCNCC4)cn3)nc2n(C2CCCC2)c1=O [Palbociclib] + C[C@]1(O)C[C@@H](c2nc(-c3ccc4ccc(-c5ccccc5)nc4c3)c3c(N)nccn32)C1 [Linsitinib] (partner 1 µM)
Outline: as §1

Palbociclib + Alpelisib = compound: CC(=O)c1c(C)c2cnc(Nc3ccc(N4CCNCC4)cn3)nc2n(C2CCCC2)c1=O [Palbociclib] + Cc1nc(NC(=O)N2CCC[C@H]2C(N)=O)sc1-c1ccnc(C(C)(C)C(F)(F)F)c1 [Alpelisib] (partner 2 µM)
Outline: as §1

Palbociclib = compound: CC(=O)c1c(C)c2cnc(Nc3ccc(N4CCNCC4)cn3)nc2n(C2CCCC2)c1=O [Palbociclib]
Outline: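 Acceptance criteria were a control CV below 25% and at least one doubling per plate. Lung cancer cell lines in 1536-well plates got five library-drug doses (not always all listed) √10 apart by pinning and were left 5 days with no medium change. Viability divides treated-well nuclei by vehicle-well nuclei and is the median across plates. Nuclei were counted by MetaXpress from 4× Hoechst images.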

Palbociclib + OSI-027 = compound: CC(=O)c1c(C)c2cnc(Nc3ccc(N4CCNCC4)cn3)nc2n(C2CCCC2)c1=O [Palbociclib] + COc1cccc2cc(-c3nc([C@H]4CC[C@H](C(=O)O)CC4)n4ncnc(N)c34)[nH]c12 [OSI-027] (partner 0.5 µM)
Outline: as §1

Palbociclib + Dasatinib = compound: CC(=O)c1c(C)c2cnc(Nc3ccc(N4CCNCC4)cn3)nc2n(C2CCCC2)c1=O [Palbociclib] + Cc1nc(Nc2ncc(C(=O)Nc3c(C)cccc3Cl)s2)cc(N2CCN(CCO)CC2)n1 [Dasatinib] (partner 0.075 µM)
Outline: as §1

Palbociclib + Tozasertib = compound: CC(=O)c1c(C)c2cnc(Nc3ccc(N4CCNCC4)cn3)nc2n(C2CCCC2)c1=O [Palbociclib] + Cc1cc(Nc2cc(N3CCN(C)CC3)nc(Sc3ccc(NC(=O)C4CC4)cc3)n2)n[nH]1 [Tozasertib] (partner 0.1 µM)
Outline: as §1

Palbociclib + Luminespib = compound: CC(=O)c1c(C)c2cnc(Nc3ccc(N4CCNCC4)cn3)nc2n(C2CCCC2)c1=O [Palbociclib] + CCNC(=O)c1noc(-c2cc(C(C)C)c(O)cc2O)c1-c1ccc(CN2CCOCC2)cc1 [Luminespib] (partner 0.01 µM)
Outline: as §1

Palbociclib + Phenformin = compound: CC(=O)c1c(C)c2cnc(Nc3ccc(N4CCNCC4)cn3)nc2n(C2CCCC2)c1=O [Palbociclib] + N=C(N)NC(=N)NCCc1ccccc1 [Phenformin] (partner 250 µM)
Outline: as §1

Cell Line: IA-LM
- relative viability (Palbociclib + Olaparib; first compound 0.01 µM): 0.755
- relative viability (Palbociclib + Olaparib; first compound 0.03162 µM): 0.643
- relative viability (Palbociclib + Olaparib; first compound 0.1 µM): 0.548
- relative viability (Palbociclib + Olaparib; first compound 0.3162 µM): 0.474
- relative viability (Palbociclib + Olaparib; first compound 1 µM): 0.268
- relative viability (Palbociclib + Navitoclax; first compound 0.01 µM): 0.589
- relative viability (Palbociclib + Navitoclax; first compound 0.03162 µM): 0.43
- relative viability (Palbociclib + Navitoclax; first compound 0.1 µM): 0.234
- relative viability (Palbociclib + Navitoclax; first compound 0.3162 µM): 0.206
- relative viability (Palbociclib + Navitoclax; first compound 1 µM): 0.119
- relative viability (Palbociclib + Vorinostat; first compound 0.01 µM): 0.955
- relative viability (Palbociclib + Vorinostat; first compound 0.1 µM): 0.661
- relative viability (Palbociclib + Vorinostat; first compound 0.3162 µM): 0.724
- relative viability (Palbociclib + Vorinostat; first compound 1 µM): 0.312
- relative viability (Palbociclib + Foretinib; first compound 0.01 µM): 1.06
- relative viability (Palbociclib + Foretinib; first compound 0.03162 µM): 0.959
- relative viability (Palbociclib + Foretinib; first compound 0.1 µM): 0.862
- relative viability (Palbociclib + Foretinib; first compound 0.3162 µM): 0.514
- relative viability (Palbociclib + Foretinib; first compound 1 µM): 0.313
- relative viability (Palbociclib + Lapatinib; first compound 0.01 µM): 0.701
- relative viability (Palbociclib + Lapatinib; first compound 0.03162 µM): 0.41
- relative viability (Palbociclib + Lapatinib; first compound 0.1 µM): 0.392
- relative viability (Palbociclib + Lapatinib; first compound 0.3162 µM): 0.264
- relative viability (Palbociclib + Lapatinib; first compound 1 µM): 0.143
- relative viability (Palbociclib + Crizotinib; first compound 0.01 µM): 0.748
- relative viability (Palbociclib + Crizotinib; first compound 0.03162 µM): 0.505
- relative viability (Palbociclib + Crizotinib; first compound 0.1 µM): 0.373
- relative viability (Palbociclib + Crizotinib; first compound 0.3162 µM): 0.138
- relative viability (Palbociclib + Crizotinib; first compound 1 µM): 0.0793
- relative viability (Palbociclib + Pictilisib; first compound 0.01 µM): 0.299
- relative viability (Palbociclib + Pictilisib; first compound 0.03162 µM): 0.215
- relative viability (Palbociclib + Pictilisib; first compound 0.1 µM): 0.167
- relative viability (Palbociclib + Pictilisib; first compound 0.3162 µM): 0.113
- relative viability (Palbociclib + Pictilisib; first compound 1 µM): 0.0912
- relative viability (Palbociclib + Bortezomib; first compound 0.01 µM): 0.606
- relative viability (Palbociclib + Bortezomib; first compound 0.03162 µM): 0.49
- relative viability (Palbociclib + Bortezomib; first compound 0.1 µM): 0.469
- relative viability (Palbociclib + Bortezomib; first compound 0.3162 µM): 0.348
- relative viability (Palbociclib + Bortezomib; first compound 1 µM): 0.134
- relative viability (Palbociclib + Linsitinib; first compound 0.01 µM): 0.492
- relative viability (Palbociclib + Linsitinib; first compound 0.03162 µM): 0.399
- relative viability (Palbociclib + Linsitinib; first compound 0.1 µM): 0.395
- relative viability (Palbociclib + Linsitinib; first compound 0.3162 µM): 0.221
- relative viability (Palbociclib + Linsitinib; first compound 1 µM): 0.118
- relative viability (Palbociclib + Alpelisib; first compound 0.01 µM): 0.826
- relative viability (Palbociclib + Alpelisib; first compound 0.03162 µM): 0.675
- relative viability (Palbociclib + Alpelisib; first compound 0.1 µM): 0.456
- relative viability (Palbociclib + Alpelisib; first compound 0.3162 µM): 0.373
- relative viability (Palbociclib + Alpelisib; first compound 1 µM): 0.144
- relative viability (Palbociclib; 0.01 µM): 0.901
- relative viability (Palbociclib; 0.03162 µM): 0.54
- relative viability (Palbociclib; 0.1 µM): 0.559
- relative viability (Palbociclib; 0.3162 µM): 0.428
- relative viability (Palbociclib; 1 µM): 0.162

Cell Line: NCI-H1623
- relative viability (Palbociclib + OSI-027; first compound 0.01 µM): 0.488
- relative viability (Palbociclib + OSI-027; first compound 0.03162 µM): 0.512
- relative viability (Palbociclib + OSI-027; first compound 0.1 µM): 0.448
- relative viability (Palbociclib + OSI-027; first compound 0.3162 µM): 0.398
- relative viability (Palbociclib + OSI-027; first compound 1 µM): 0.364
- relative viability (Palbociclib + Foretinib; first compound 0.01 µM): 0.97
- relative viability (Palbociclib + Foretinib; first compound 0.03162 µM): 0.741
- relative viability (Palbociclib + Foretinib; first compound 0.1 µM): 0.867
- relative viability (Palbociclib + Foretinib; first compound 0.3162 µM): 0.994
- relative viability (Palbociclib + Foretinib; first compound 1 µM): 0.64
- relative viability (Palbociclib + Dasatinib; first compound 0.01 µM): 0.551
- relative viability (Palbociclib + Dasatinib; first compound 0.03162 µM): 0.473
- relative viability (Palbociclib + Dasatinib; first compound 0.1 µM): 0.517
- relative viability (Palbociclib + Dasatinib; first compound 0.3162 µM): 0.546
- relative viability (Palbociclib + Dasatinib; first compound 1 µM): 0.453
- relative viability (Palbociclib + Tozasertib; first compound 0.01 µM): 0.481
- relative viability (Palbociclib + Tozasertib; first compound 0.03162 µM): 0.48
- relative viability (Palbociclib + Tozasertib; first compound 0.1 µM): 0.476
- relative viability (Palbociclib + Tozasertib; first compound 0.3162 µM): 0.417
- relative viability (Palbociclib + Tozasertib; first compound 1 µM): 0.37
- relative viability (Palbociclib + Luminespib; first compound 0.01 µM): 0.496
- relative viability (Palbociclib + Luminespib; first compound 0.03162 µM): 0.473
- relative viability (Palbociclib + Luminespib; first compound 0.1 µM): 0.587
- relative viability (Palbociclib + Luminespib; first compound 0.3162 µM): 0.463
- relative viability (Palbociclib + Luminespib; first compound 1 µM): 0.463
- relative viability (Palbociclib + Phenformin; first compound 0.01 µM): 0.602
- relative viability (Palbociclib + Phenformin; first compound 0.03162 µM): 0.534
- relative viability (Palbociclib + Phenformin; first compound 0.1 µM): 0.628
- relative viability (Palbociclib + Phenformin; first compound 0.3162 µM): 0.615
- relative viability (Palbociclib + Phenformin; first compound 1 µM): 0.496
- relative viability (Palbociclib; 0.01 µM): 1.16
- relative viability (Palbociclib; 0.03162 µM): 0.885
- relative viability (Palbociclib; 0.1 µM): 0.918
- relative viability (Palbociclib; 0.3162 µM): 0.951
- relative viability (Palbociclib; 1 µM): 0.686

— the supplement of paper PMC10307832
